≈ marks a conversion by molar mass, not a printed value. Read-outs that look alike come from different tables or passages of the source.
How the values were obtained:
Type in all cases: physicochemical
[1] = Solubility in various media (equilibration on a shaking bed for 24 hours, HPLC); settings: for solubility at 24 h: thermodynamic from solid
Description: Solubility: The solubility of form IA in various media was determined at ambient conditions by equilibrating aliquots of the drug powder with the solvents on a shaking bed for 24 hours. The samples were centrifuged, the saturated solutions of the drug were then separated and analyzed by HPLC. The sample volume was 100 μL and the target concentration was 10 mg/mL. The saturated solutions were diluted appropriately and analyzed by HPLC.
Solubility: Solubility of form IIC in various media was determined at ambient conditions by equilibrating aliquots of the drug powder with the solvents on a shaking bed for 24 hours. Samples were spun and the supernatant was carefully separated and analyzed by HPLC at the 24-hour timepoint using a stability-indicating method. […] Some variability may occur between lots of a particular sample.
Solubility: Solubility of form IIIB in various media was determined at ambient conditions by equilibrating aliquots of the drug powder with the medium on a shaking bed for 24 hours. The samples were centrifuged, the saturated solutions of the drug were then separated and analyzed by HPLC. The sample volume was 100 μL, and the target concentration was 10 mg/ml. The saturated solutions were diluted appropriately and analyzed by HPLC.

[2] = Dynamic Vapor Sorption (DVS), step isothermal study; settings: 25° C.
Description: Dynamic Vapor Sorption (DVS): A step isothermal study (25° C.) was conducted on a representative sample of form IA using a VTI SGA 100 Symmetric Vapor Sorption Analyzer. An aliquot of approximately 10 mg was weighed in an open platinum dish and exposed to different levels of humidity at 25° C. Relative humidity (RH) steps were from 5% to 95% (adsorption) and from 95% to 5% in increments of 5% RH (desorption). The equilibration criterion was 0.0100 wt % change in 5 min, with a max equilibration time of 180 min. The sample picked up ˜8 wt % moisture at 95% relative humidity (RH).
Dynamic Vapor Sorption (DVS): A step isothermal study (25° C.) was conducted on a sample of form IIA using a VTI SGA 100 Symmetric Vapor Sorption Analyzer. An aliquot of approximately 10 mg was weighed in an open platinum dish and exposed to different levels of humidity at 25° C. Relative humidity (RH) steps were from 5% to 95% (adsorption) and from 95% to 5% in increments of 5% RH (desorption). The equilibration criterion was 0.0100 wt % change in 5 min, with a max equilibration time of 180 min. The material picked up ˜11 wt % moisture at 95% relative humidity (RH).
Dynamic Vapor Sorption (DVS): A step isothermal study (25° C.) was conducted on a sample of form IIC using a VTI SGA 100 Symmetric Vapor Sorption Analyzer. An aliquot of approximately 10 mg was weighed in an open platinum dish and exposed to different levels of humidity at 25° C. Relative humidity (RH) steps were from 5% to 95% (adsorption) and from 95% to 5% in increments of 5% RH (desorption). The equilibration criterion was 0.0100 wt % change in 5 min, with a max equilibration time of 180 min. The material picked up ˜4 wt % moisture at 95% relative humidity (RH).
Water Vapor Sorption analysis: Vapor Sorption analysis of a sample of form IIIB was done using a SGA-100 Vapor Sorption Analyzer (VTI, Hialeah, Fla.). A sample with weight of approximately 7-12 mg was measured isothermally at 25° C. Data was collected by Isotherm software and analyzed by Microsoft Excel with a VTI macro (VTI, Hialeah, Fla.). The sample gained about 4.6% in weight from 5 to 95% RH (25° C.).

[3] = Stability analysis (chemical stability by HPLC, physical stability by XRPD)
Description: In some embodiments, less than 25% of the form of Compound 1 decomposes, in some embodiments, less than about 20%, less than about 15%, less than about 10%, less than about 5%, less than about 3%, less than about 1%, less than about 0.5% of the form of Compound 1 decomposes under the conditions specified. In some embodiments, no detectable amount of the form of Compound 1 decomposes.
In some embodiments, less than 25% of the form of Compound 1 changes into one or more different physical forms when subjected to specified conditions, In some embodiments, less than about 20%, less than about 15%, less than about 10%, less than about 5%, less than about 3%, less than about 1%, less than about 0.5% of the form of Compound 1 changes into one or more different physical forms of Compound 1 when subjected to specified conditions. In some embodiments, no detectable amount of the form of Compound 1 changes into one or more different physical forms of Compound 1.

[4] = various storage conditions, including 40° C./75% RH (e.g., open container)

CCNC(=O)Nc1nc2cc(-c3cncc(F)c3)cc(-c3ncccn3)c2[nH]1 [Form IA, crystalline 1-ethyl-3-(5-(5-fluoropyridin-3-yl)-7-(pyrimidin-2-yl)-1H-benzo[d]imidazol-2-yl)urea]
solubility at 24 h ([1]; 0.05 M potassium biphthalate-sodium hydroxide buffer, pH 3, aqueous buffer, Potassium biphthalate sodium hydroxide, pH 3, read-out: Solubility in 0.05M Buffers at Different pH): 70 µg/mL (≈ 185 µM)
solubility at 24 h ([1]; 0.05 M potassium biphthalate-sodium hydroxide buffer, pH 5, aqueous buffer, Potassium biphthalate sodium hydroxide, pH 5, read-out: Solubility in 0.05M Buffers at Different pH): < 1 µg/mL
solubility at 24 h ([1]; 0.05 M potassium chloride-hydrochloric acid buffer, pH 1, simulated gastric fluid, Potassium chloride hydrochloric acid, pH 1, read-out: Solubility in 0.05M Buffers at Different pH): 2240 µg/mL (≈ 5940 µM)
solubility at 24 h ([1]; 0.05 M potassium phosphate monobasic-sodium hydroxide buffer, pH 7, aqueous buffer, Potassium phosphate monobasic-sodium hydroxide, pH 7, read-out: Solubility in 0.05M Buffers at Different pH): < 1 µg/mL
solubility at 24 h ([1]; 0.05 M potassium phosphate monobasic-sodium hydroxide buffer, pH 9, aqueous buffer, Potassium phosphate monobasic-sodium hydroxide, pH 9, read-out: Solubility in 0.05M Buffers at Different pH): < 1 µg/mL
solubility at 24 h ([1]; 0.1N HCl, pH 1.29, simulated gastric fluid, 0.1N HCL, pH 1.29, ambient, 24 h, read-out: Solubility): 13700 µg/mL (≈ 36200 µM)
solubility at 24 h ([1]; 1% SLS (sodium lauryl sulfate), pH 7.87, aqueous with cosolvent or surfactant or cyclodextrin, 1% SLS (Sodium Lauryl Sulfate), pH 7.87, ambient, 24 h, read-out: Solubility): 75 µg/mL (≈ 199 µM)
solubility at 24 h ([1]; 1% Tween 80 in water, aqueous with cosolvent or surfactant or cyclodextrin, 1% Tween80 in water, ambient, 24 h, read-out: Solubility): 10 µg/mL (≈ 26.5 µM)
solubility at 24 h ([1]; 10% Cremophor EL, pH 6.48, aqueous with cosolvent or surfactant or cyclodextrin, 10% Cremophor EL, pH 6.48, ambient, 24 h, read-out: Solubility): 66 µg/mL (≈ 175 µM)
solubility at 24 h ([1]; 10% Cremophor in water, aqueous with cosolvent or surfactant or cyclodextrin, 10% Cremophor in water, ambient, 24 h, read-out: Solubility): 80 µg/mL (≈ 212 µM)
solubility at 24 h ([1]; 10% Tween 80, pH 6.22, aqueous with cosolvent or surfactant or cyclodextrin, 10% Tween 80, pH 6.22, ambient, 24 h, read-out: Solubility): 67 µg/mL (≈ 178 µM)
solubility at 24 h ([1]; 10% Vit E TPGS, pH 5.57, aqueous with cosolvent or surfactant or cyclodextrin, 10% Vit E TPGS, pH 5.57, ambient, 24 h, read-out: Solubility): 87 µg/mL (≈ 231 µM)
solubility at 24 h ([1]; D5W (dextrose 5% in water), saline or isotonic, D5W (Dextrose 5% in water), ambient, 24 h, read-out: Solubility): < 1 µg/mL
solubility at 24 h ([1]; Fasted SIF (Dressman's recipe 1), fassif, Dressman's recipe 1-Fasted SIF, ambient, 24 h, read-out: Solubility): < 1 µg/mL
solubility at 24 h ([1]; Fed SIF (simulated intestinal fluid, Dressman's recipe 1), fessif, Dressman's recipe 1-Fed SIF (Simulated Intestinal Fluid), ambient, 24 h, read-out: Solubility): 10 µg/mL (≈ 26.5 µM)
solubility at 24 h ([1]; Miglyol 810, oil or lipid, Miglyol 810, ambient, 24 h, read-out: Solubility): 17 µg/mL (≈ 45 µM)
solubility at 24 h ([1]; PBS, aqueous buffer, PBS (Phosphate Buffer Saline), ambient, 24 h, read-out: Solubility): < 1 µg/mL
solubility at 24 h ([1]; PEG 400, pH 7.54, organic solvent or mixture, PEG 400, pH 7.54, ambient, 24 h, read-out: Solubility): 1620 µg/mL (≈ 4300 µM)
solubility at 24 h ([1]; SGF (simulated gastric fluid, USP recipe), simulated gastric fluid, USP recipe-SGF (Simulated Gastric Fluid), ambient, 24 h, read-out: Solubility): 4920 µg/mL (≈ 13000 µM)
solubility at 24 h ([1]; Tris buffer, pH 7 (1.0 M), pH 7.2, aqueous buffer, Tris buffer, pH 7 (1.0M), pH 7.20, ambient, 24 h, read-out: Solubility): < 1 µg/mL
solubility ([1]; at a pH of about 1): about 2 mg/mL
solubility at 24 h ([1]; deionized water, pH 7.14, water, Deionized Water, pH 7.14, ambient, 24 h, read-out: Solubility): < 1 µg/mL
solubility at 24 h ([1]; ethanol, organic solvent or mixture, Ethanol (second entry, pH NA), ambient, 24 h, read-out: Solubility): 220 µg/mL (≈ 583 µM)
solubility at 24 h ([1]; ethanol, pH 6.71, organic solvent or mixture, Ethanol (first entry), pH 6.71, ambient, 24 h, read-out: Solubility): 56 µg/mL (≈ 148 µM)
solubility at 24 h ([1]; octanol, organic solvent or mixture, Octanol, ambient, 24 h, read-out: Solubility): 175 µg/mL (≈ 464 µM)
solubility at 24 h ([1]; pH 1, simulated gastric fluid, at a pH of about 1, read-out: solubility): ≥ 2000 µg/mL
solubility at 24 h ([1]; propylene glycol, pH 6.04, organic solvent or mixture, Propylene Glycol, pH 6.04, ambient, 24 h, read-out: Solubility): 359 µg/mL (≈ 951 µM)
hygroscopicity ([2]; DVS): moderate hygroscopicity
hydrate formation ([2]; DVS, 5% to 95% RH): did not form a hydrate
release of adsorbed water in the desorption stage ([2]; DVS, 95% to 5% RH): All adsorbed water was released
moisture picked up at 95% relative humidity (RH) ([2]; DVS, adsorption 5% to 95% RH): ~8 wt %
weight gain from 5% to 95% relative humidity ([2]; step isothermic study (DVS)): 8%
remains chemically stable for at least ([3]; 40° C./75% relative humidity): ≥ 6 months
remains in substantially the same physical form for at least ([3]; 40° C./75% relative humidity): ≥ 6 months
stability when subjected to mild mechanical stress ([3]; mild mechanical stress such as grinding): chemically and physically stable
chemically and physically stable for at least about [3, 4]: at least 2 weeks
chemically and physically stable for at least about (e.g. value) [3, 4]: ≥ 6 months
